Measured values as given in PubChem BioAssay AID248 (DTP/NCI, 2004).
Values joined by “and” are separate entries in the source; they are usually repeats but may differ in a detail not shown here. Equal values may be shown once. Inconclusive results and toxic doses are left out.

Tested on: L1210 leukemia ip in BDF1 mice, survival T/C
Test: NCI In Vivo Anticancer Drug Screen. Data for tumor model L1210 Leukemia (intraperitoneal) in B6D2F1 (BDF1) mice
Settings: higher = longer survival
How it was run: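 Tumor was transplanted into mice, which were then dosed with test compound or vehicle alone. Survival was recorded for each group, and the treated figure was expressed relative to the control figure.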

OC(C1CO1)C(O)C1CO1 (centres undefined)
T/C (endpoint: mean survival time, dose: 0.25 mg/kg/injection, schedule: Q03HX008 (ip), vehicle: saline): 106 % of control | T/C (endpoint: mean survival time, dose: 0.35 mg/kg/injection, schedule: Q01DX009 (ip), vehicle: saline): 94 % of control | T/C (endpoint: mean survival time, dose: 0.5 mg/kg/injection, schedule: Q01DX009 (ip), vehicle: saline): 104 % of control | T/C (endpoint: mean survival time, dose: 0.5 mg/kg/injection, schedule: Q03HX008 (ip), vehicle: saline): 115 % of control | T/C (endpoint: mean survival time, dose: 0.52 mg/kg/injection, schedule: Q01DX009 (ip), vehicle: saline): 97 % of control | T/C (endpoint: mean survival time, dose: 0.61 mg/kg/injection, schedule: Q04DX003 (ip), vehicle: saline): 104 % of control | T/C (endpoint: mean survival time, dose: 0.65 mg/kg/injection, schedule: Q01DX009 (ip), vehicle: water): 110 % of control | T/C (endpoint: mean survival time, dose: 0.96 mg/kg/injection, schedule: Q01DX001 (ip), vehicle: saline): 119 % of control | T/C (endpoint: mean survival time, dose: 1.0 mg/kg/injection, schedule: Q01DX009 (sc), vehicle: saline): 121 % of control | T/C (endpoint: mean survival time, dose: 1.0 mg/kg/injection, schedule: Q03HX016 (ip), vehicle: saline): 160 % of control | T/C (endpoint: mean survival time, dose: 1.0 mg/kg/injection, schedule: Q03HX024 (ip), vehicle: saline): 170 % of control | T/C (endpoint: mean survival time, dose: 1.0 mg/kg/injection, schedule: Q04DX003 (ip), vehicle: saline): 110 % of control and 116 % of control | T/C (endpoint: mean survival time, dose: 1.25 mg/kg/injection, schedule: Q04DX003 (ip), vehicle: saline): 104 % of control | T/C (endpoint: mean survival time, dose: 1.3 mg/kg/injection, schedule: Q01DX009 (ip), vehicle: saline): 175 % of control | T/C (endpoint: mean survival time, dose: 1.4 mg/kg/injection, schedule: Q01DX001 (ip), vehicle: saline): 119 % of control | T/C (endpoint: mean survival time, dose: 1.4 mg/kg/injection, schedule: Q01DX009 (ip), vehicle: saline): 184 % of control | T/C (endpoint: mean survival time, dose: 1.6 mg/kg/injection, schedule: Q01DX009 (ip), vehicle: water): 102 % of control | T/C (endpoint: mean survival time, dose: 1.87 mg/kg/injection, schedule: Q01DX001 (ip), vehicle: saline): 110 % of control | T/C (endpoint: mean survival time, dose: 2.0 mg/kg/injection, schedule: Q01DX001 (ip), vehicle: saline): 116 % of control | T/C (endpoint: mean survival time, dose: 2.0 mg/kg/injection, schedule: Q03HX008 (ip), vehicle: saline): 227 % of control | T/C (endpoint: mean survival time, dose: 2.0 mg/kg/injection, schedule: Q03HX016 (ip), vehicle: saline): 218 % of control | T/C (endpoint: mean survival time, dose: 2.0 mg/kg/injection, schedule: Q03HX024 (ip), vehicle: saline): 105 % of control | T/C (endpoint: mean survival time, dose: 2.0 mg/kg/injection, schedule: Q04DX003 (ip), vehicle: saline): 123 % of control | T/C (endpoint: mean survival time, dose: 2.0 mg/kg/injection, schedule: Q08DX002 (ip), vehicle: saline): 113 % of control | T/C (endpoint: mean survival time, dose: 2.5 mg/kg/injection, schedule: Q01DX009 (ip), vehicle: saline): 118 % of control | T/C (endpoint: mean survival time, dose: 2.5 mg/kg/injection, schedule: Q04DX003 (ip), vehicle: saline): 105 % of control and 115 % of control | T/C (endpoint: mean survival time, dose: 3.0 mg/kg/injection, schedule: Q01DX009 (ip), vehicle: saline): 163 % of control and 186 % of control and 193 % of control | T/C (endpoint: mean survival time, dose: 3.0 mg/kg/injection, schedule: Q01DX009 (ip), vehicle: water): 224 % of control | T/C (endpoint: mean survival time, dose: 3.2 mg/kg/injection, schedule: Q01DX009 (ip), vehicle: saline): 120 % of control | T/C (endpoint: mean survival time, dose: 3.3 mg/kg/injection, schedule: Q01DX001 (ip), vehicle: saline): 154 % of control | T/C (endpoint: mean survival time, dose: 3.75 mg/kg/injection, schedule: Q01DX001 (ip), vehicle: saline): 118 % of control | T/C (endpoint: mean survival time, dose: 4.0 mg/kg/injection, schedule: Q01DX001 (sc), vehicle: saline): 115 % of control | T/C (endpoint: mean survival time, dose: 4.0 mg/kg/injection, schedule: Q01DX009 (ip), vehicle: saline): 160 % of control | T/C (endpoint: mean survival time, dose: 4.0 mg/kg/injection, schedule: Q04DX003 (ip), vehicle: saline): 168 % of control and 170 % of control and 198 % of control | T/C (endpoint: mean survival time, dose: 4.0 mg/kg/injection, schedule: Q08DX002 (ip), vehicle: saline): 155 % of control | T/C (endpoint: mean survival time, dose: 4.6 mg/kg/injection, schedule: Q01DX001 (ip), vehicle: saline): 113 % of control | T/C (endpoint: mean survival time, dose: 4.6 mg/kg/injection, schedule: Q01DX009 (ip), vehicle: saline): 89 % of control | T/C (endpoint: mean survival time, dose: 4.6 mg/kg/injection, schedule: Q04DX003 (ip), vehicle: saline): 242 % of control and 112 % of control | T/C (endpoint: mean survival time, dose: 4.6 mg/kg/injection, schedule: Q08DX002 (ip), vehicle: saline): 163 % of control | T/C (endpoint: mean survival time, dose: 5.0 mg/kg/injection, schedule: Q01DX001 (ip), vehicle: saline): 214 % of control | T/C (endpoint: mean survival time, dose: 5.0 mg/kg/injection, schedule: Q01DX009 (ip), vehicle: saline): 95 % of control and 204 % of control and 255 % of control | T/C (endpoint: mean survival time, dose: 5.0 mg/kg/injection, schedule: Q01DX009 (ip), vehicle: water): 108 % of control | T/C (endpoint: mean survival time, dose: 5.0 mg/kg/injection, schedule: Q04DX003 (ip), vehicle: saline): 124 % of control | T/C (endpoint: mean survival time, dose: 6.7 mg/kg/injection, schedule: Q04DX003 (ip), vehicle: saline): 195 % of control and 227 % of control | T/C (endpoint: mean survival time, dose: 7.0 mg/kg/injection, schedule: Q01DX001 (ip), vehicle: saline): 157 % of control and 240 % of control and 117 % of control | T/C (endpoint: mean survival time, dose: 7.0 mg/kg/injection, schedule: Q01DX009 (ip), vehicle: saline): 97 % of control and 115 % of control | T/C (endpoint: mean survival time, dose: 7.0 mg/kg/injection, schedule: Q04DX003 (ip), vehicle: saline): 284 % of control and 122 % of control | T/C (endpoint: mean survival time, dose: 7.0 mg/kg/injection, schedule: Q08DX002 (ip), vehicle: saline): 191 % of control | T/C (endpoint: mean survival time, dose: 7.5 mg/kg/injection, schedule: Q01DX001 (ip), vehicle: saline): 185 % of control | T/C (endpoint: mean survival time, dose: 7.5 mg/kg/injection, schedule: Q01DX009 (ip), vehicle: saline): 169 % of control | T/C (endpoint: mean survival time, dose: 8.0 mg/kg/injection, schedule: Q01DX001 (ip), vehicle: saline): 158 % of control | T/C (endpoint: mean survival time, dose: 8.0 mg/kg/injection, schedule: Q01DX001 (oral), vehicle: saline): 200 % of control | T/C (endpoint: mean survival time, dose: 8.0 mg/kg/injection, schedule: Q04DX003 (ip), vehicle: saline): 300 % of control and 304 % of control | T/C (endpoint: mean survival time, dose: 8.0 mg/kg/injection, schedule: Q08DX002 (ip), vehicle: saline): 193 % of control | T/C (endpoint: mean survival time, dose: 10.0 mg/kg/injection, schedule: Q01DX009 (ip), vehicle: saline): 88 % of control | T/C (endpoint: mean survival time, dose: 10.0 mg/kg/injection, schedule: Q04DX003 (ip), vehicle: saline): 404 % of control and 448 % of control and 471 % of control | T/C (endpoint: mean survival time, dose: 10.6 mg/kg/injection, schedule: Q01DX001 (ip), vehicle: saline): 308 % of control and 105 % of control | T/C (endpoint: mean survival time, dose: 11.25 mg/kg/injection, schedule: Q01DX009 (ip), vehicle: saline): 91 % of control | T/C (endpoint: mean survival time, dose: 12.5 mg/kg/injection, schedule: Q01DX009 (ip), vehicle: saline): 110 % of control | T/C (endpoint: mean survival time, dose: 15.0 mg/kg/injection, schedule: Q04DX003 (ip), vehicle: saline): 161 % of control and 172 % of control and 368 % of control | T/C (endpoint: mean survival time, dose: 16.0 mg/kg/injection, schedule: Q01DX001 (ip), vehicle: saline): 368 % of control | T/C (endpoint: mean survival time, dose: 16.0 mg/kg/injection, schedule: Q01DX001 (sc), vehicle: saline): 180 % of control | T/C (endpoint: mean survival time, dose: 24.0 mg/kg/injection, schedule: Q04DX003 (ip), vehicle: saline): 191 % of control | T/C (endpoint: mean survival time, dose: 64.0 mg/kg/injection, schedule: Q01DX001 (ip), vehicle: saline): 97 % of control | T/C (endpoint: mean survival time, dose: 118.0 mg/kg/injection, schedule: Q08DX002 (ip), vehicle: saline): 105 % of control | T/C (endpoint: median survival time, dose: 1.0 mg/kg/injection, schedule: Q01DX009 (sc), vehicle: water): 111 % of control | T/C (endpoint: median survival time, dose: 2.0 mg/kg/injection, schedule: Q01DX009 (ip), vehicle: water): 188 % of control | T/C (endpoint: median survival time, dose: 2.0 mg/kg/injection, schedule: Q04DX003 (ip), vehicle: water): 122 % of control | T/C (endpoint: median survival time, dose: 2.0 mg/kg/injection, schedule: Q04DX003 (sc), vehicle: water): 111 % of control | T/C (endpoint: median survival time, dose: 2.5 mg/kg/injection, schedule: Q01DX001 (ip), vehicle: water): 122 % of control | T/C (endpoint: median survival time, dose: 4.0 mg/kg/injection, schedule: Q01DX009 (ip), vehicle: water): 116 % of control | T/C (endpoint: median survival time, dose: 4.0 mg/kg/injection, schedule: Q01DX009 (sc), vehicle: water): 105 % of control | T/C (endpoint: median survival time, dose: 4.0 mg/kg/injection, schedule: Q04DX003 (ip), vehicle: water): 166 % of control | T/C (endpoint: median survival time, dose: 4.0 mg/kg/injection, schedule: Q04DX003 (sc), vehicle: water): 155 % of control | T/C (endpoint: median survival time, dose: 8.0 mg/kg/injection, schedule: Q04DX003 (ip), vehicle: water): 94 % of control | T/C (endpoint: median survival time, dose: 8.0 mg/kg/injection, schedule: Q04DX003 (sc), vehicle: water): 100 % of control | T/C (endpoint: median survival time, dose: 10.0 mg/kg/injection, schedule: Q01DX001 (ip), vehicle: water): 154 % of control | T/C (endpoint: median survival time, dose: 20.0 mg/kg/injection, schedule: Q01DX001 (ip), vehicle: water): 103 % of control | T/C (endpoint: median survival time, dose: 40.0 mg/kg/injection, schedule: Q01DX001 (ip), vehicle: water): 99 % of control
